Reference: PMC5228037, “Discovery and Mechanistic Characterization of Selective Inhibitors of H2S-producing Enzyme: 3-Mercaptopyruvate Sulfurtransferase (3MST) Targeting Active-site Cysteine Persulfide” (Scientific Reports, 2017)

Columns and labels:
[1] = biological target: T1, recombinant CSE (Rattus norvegicus, UniProt P18757); assay: Inhibitory activity towards purified CSE by gas chromatography; assay type: biochemical; settings: 100 μM compound, 10 mM L-cysteine
T1 construct: GST (N, cleaved yes); made in house; host or cells: E. coli DH5α
Method: (§1) Figure 2 Selectivity assessment of hit compounds for 3MST over other H2S/polysulfides-producing enzymes and rhodanese. (a) 3MST-Inhibitory activity of hit compounds at 10 and 100 μM in cell lysate of 3MST-expressing HEK293 cells. 100 μM 3MP and 100 μM DTT were added to the solution containing 0.1% DMSO as a cosolvent, and the mixture was incubated at 37 °C for 15 min. H2S production was measured by gas chromatography. All data are presented as the mean ± S.D. (100 μM: n = 3 or 4; 10 μM: n = 3). (b) Selectivity assessment of hit compounds at 100 μM towards CBS and CSE. Only DMSO was added to the control sample instead of DMSO solution containing hit compounds. H2S production was monitored by gas chromatography. All data are presented as the mean (n = 3). (c) Detection method for rhodanese activity (Sörbo method). (d) Selectivity assessment of hit compounds towards rhodanese. The results are mean ± S.D. (n = 4, three times). These values were determined based upon the absorbance of [Fe(SCN)3] at 460 nm (Sӧrbo method). Bovine rhodanese 1.3–1.7 units/mL, substrate: 52 mM Na2S2O3, 50 mM KCN, 0.004% (w/v) BSA, 100 μM compound and DMSO 1% (v/v) in 88 mM potassium phosphate buffer (pH 8.6) at room temperature for 5 min incubation. (e) Fluorescence confocal microscopic images of live COS7 cells transfected with 3MST or an empty vector[9] as a control. Cells were incubated with 50 μM SSP4, a fluorescent probe for sulfane sulfur, and 10 μM, 1 μM, 0.5 μM, 0.1 or 0 μM compound 3 in DMEM containing 0.6% DMSO for 30 min, then washed with HBSS and placed in fresh DMEM with 0‒10 μM compound 3 (Pre). 500 μM 3MP was added to the cells and the cells were incubated for 10 min (10 min). (f) Graphic representation of (e). F/F0 was calculated by dividing the fluorescence intensity of cells after addition of 500 μM 3MP (10 min) by that of cells before addition of 500 μM 3MP (Pre), then the mean F/F0 was determined from 5 cells. All data represent the mean ± standard error of the mean (SEM) of three experiments.
GST-tagged rat CSE-HA or rat CBS-HA was expressed in E. coli DH5α as follows. […]

[2] = biological target: T2, rhodanese (thiosulfate sulfurtransferase, Type II) (Bos taurus, UniProt P00586); assay: Rhodanese activity, conversion of cyanide to thiocyanide (Sörbo method); assay type: biochemical, bovine; settings: 100 μM compound; room temperature 5 min; mean ± S.D.
T2 construct: Bovine liver rhodanese; purchased Sigma-Aldrich; host or cells: bovine liver
T2 sequence (P00586 1-297): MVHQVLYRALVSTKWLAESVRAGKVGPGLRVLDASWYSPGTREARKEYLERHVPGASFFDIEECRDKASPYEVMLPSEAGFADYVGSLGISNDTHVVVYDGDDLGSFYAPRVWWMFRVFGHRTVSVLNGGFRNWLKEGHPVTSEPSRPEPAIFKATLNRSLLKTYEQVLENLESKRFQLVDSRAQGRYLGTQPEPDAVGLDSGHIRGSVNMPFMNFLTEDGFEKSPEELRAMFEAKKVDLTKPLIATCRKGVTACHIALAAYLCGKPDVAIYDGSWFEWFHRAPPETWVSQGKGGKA
Method: as §1
Following reagents were prepared.
B. 125 mM sodium thiosulfate (Na2S2O3) solution
C. 250 mM potassium cyanide (KCN) solution in reagent A
D. 14% (w/v) nitric acid (HNO3) solution
E. 410 mM ferric nitrate (Fe(NO3)3) in reagent D
F. 37% formaldehyde solution
G. 12.5 mM sodium thiosulfate (Na2S2O3) solution with 0.025% bovine serum albumin H. rhodanese solution in reagent G […]
Mixed by pipetting and equilibrate d to room
Reagent H (Enzyme Solution) 16 µL 16 µL - Mixed by pipetting and incubate d at 25℃ for exactly 5 minutes , and then added […]
Mixed by pipetting and then added […]
Mixed by pipetting , transferred the solution 44 µL 44 µL 44 µL […]
Mixed by pipetting and recorded the A460 nm for the Test, Control and Blank using a microplate […]
Supplementary Figure S10. […]

| Compound | inhibition at 100 µM ([1]; read-out: Inhibition of recombinant CSE enzymatic activity (H2S production)) [%] | Inhibition of rhodanese conversion of cyanide ions to thiocyanide ions [2] [%] | Inhibition of recombinant CSE enzymatic activity (H2S production) [1] |
| --- | --- | --- | --- |
| NC(=O)c1ccsc1NC(=O)CSc1nc2ccccc2c(=O)[nH]1 [compound 1] | ~25 | 18.2 ± 3.6 | – |
| Cc1sc2nc(SCC(=O)c3ccc(O)cc3O)[nH]c(=O)c2c1C [compound 2] | – | 10.9 ± 5.5 | enhanced H2S production |
| Cc1cc(=O)[nH]c(SCC(=O)c2cccc3ccccc23)n1 [compound 3] | – | 1.7 ± 6.7 | almost inactive |
| O=C(O)c1cccc(NS(=O)(=O)c2ccccc2)c1 [compound 5] | – | 9.7 ± 4.5 | – |
